pIC50: −log10 of the molar value. Converted amounts (≈) assume the structure as drawn. Read-outs that look alike come from different tables or passages of the source.
Experiments:
[1] = system: colorectal cancer cell line (DLD-1); experiment: MTT assay, 72 h, colorectal cancer cell line; assay type: cell-based; settings: for IC50: Homo sapiens
Procedure: (§1) The calcium salts of Examples 1 to 3 were added to each well by concentration (20 mg/ ? , mg/ ? , 0.8 mg/ ? , 0.16 mg/ ? , 0.032 mg/ ? , 0.0064 mg/ ? , 0.00128 mg/ ? , 0.000256 mg/ ? ). […] The supernatant was removed using a centrifuge, DMSO 200 ? was added to each well to dissolve the MTT stained precipitate, and OD540 value was measured at 540 nm with an ELISA reader.

[2] = system: breast cancer cell line (MDA-MB-231); experiment: MTT assay, 72 h, breast cancer cell line; assay type: cell-based; settings: for IC50: Homo sapiens, MDA-MB-231, 72 h; for IC50 of Breast cancer cell line: MDA-MB-231, 72 h, MTT
Procedure: as §1

[3] = system: brain cancer cell line (U87MG); experiment: MTT assay, 72 h, brain cancer cell line; assay type: cell-based; settings: for IC50: Homo sapiens, U-87 MG
Procedure: as §1

PDH enzyme = experiment: Time-dependent PDH enzyme activity in cancer cells; assay type: cell-based; settings: DLD-1 and HT-29 cancer cells; FIG. 29
[4] = system: lung cancer cell line (A-549); experiment: MTT assay, 48 h, A549
Procedure: (§5) 7 cell lines were aliquoted to each well of a 96-well plate at 5×10^3 cells, and cultured for 24 hours. […] The drug-treated cells were cultured in an incubator (37° C., 5% CO2) for 48 hours, and 5 mg/ ? MTT reagent 10 ? was added to each well and cultured for additional 4 hours. Then, culture medium was removed and DMSO 100 ? was treated to dissolve the MTT stained precipitate, and absorbance was measured at 540 nm with a microplate reader.

[5] = system: colorectal cancer cell line (HT-29); experiment: MTT assay, 48 h, HT-29
Procedure: as §5

[6] = system: liver cancer cell line (HepG2); experiment: MTT assay, 48 h, HepG2
Procedure: as §5

[7] = system: ovarian cancer cell line (A2780); experiment: MTT assay, 48 h, A2780
Procedure: as §5

[8] = system: pancreatic cancer cell line (PANC-1); experiment: MTT assay, 48 h, PANC-1
Procedure: as §5

[9] = system: colorectal cancer cell line (HCT-116); experiment: MTT assay, 48 h, HCT-116; settings: for IC50: Homo sapiens, HCT-116, 48 h
Procedure: as §5

[10] = system: stomach cancer cell line (SNU-638); experiment: MTT assay, 48 h, SNU-638
Procedure: as §5

[11] = system: human colorectal cancer cell lines (HCT-116 and HT-29); experiment: Change in ascorbic acid level in cancer cells; assay type: cell-based; settings: 1 mM; 24 h; lysate; vs untreated control
Procedure: After culture, the cultured cancer cells were pulverized with a homogenizer and centrifuged, and the concentration of ascorbic acid contained in the lysate was measured using an ascorbic acid assay kit (Biovision, San Francisco, CA).

[12] = system: poly (ADP-ribose) polymerase 1 (PARP-1); experiment: Western blot, PARP-1 expression in HCT-116; assay type: cell-based, human; settings: 24 h
Procedure: The cultured cancer cells were pulverized with a homogenizer and centrifuged, and the expression levels of poly (ADP-ribose) polymerase 1 (PARP-1), β-catenin, VEGF and β-actin proteins contained in the lysate were measured using Western blot.

HCT-116 cell = experiment: IC50 of each drug alone, 48 h, HCT-116; assay type: cell-based, human
Procedure: (§2) Then, various concentration of Example or chemical anticancer drugs (Fluorouracil (5-FU), SN-38, Paclitaxel (PTX)) were treated thereto alone.

HT-29 cell = experiment: IC50 of each drug alone, 48 h, HT-29; assay type: cell-based, human
Procedure: as §2

DLD-1 cell = experiment: IC50 of each drug alone, 48 h, DLD-1; assay type: cell-based
Procedure: as §2

DLD-1 = experiment: Hetero salts vs homo salts, cell viability and cytotoxicity, DLD-1; assay type: cell-based; settings: for viability at 10000 µM: DLD-1, read-out: cell viability, DLD-1 (10 mM)
Procedure: (§3) Hetero salts prepared according to the examples (ASCA101, ASCA201) and homo salts were applied to colorectal cancer cell lines, and their effects on cell viability and cytotoxicity were evaluated.
(§4) Herein, “Na-ASC” refers to sodium ascorbate, “Na-DCA” refers to sodium dichloroacetate, “Ca (ASC) 2” refers to calcium ascorbate, “Ca (DCA) 2” refers to calcium dichloroacetate, and “Ca (LA) 2” refers to calcium lactate.

SW480 = experiment: Hetero salts vs homo salts, cell viability and cytotoxicity, SW480; assay type: cell-based; settings: for viability at 5000 µM: SW480, read-out: cell viability, SW480 (5 mM)
Procedure: as §3, §4

[13] = Homo sapiens, A549, 48 h, read-out: IC50 mM of A549 Lung cancer
[14] = Homo sapiens, A549, 48 h, read-out: IC50 of A549 Lung cancer (mg/ml)
[15] = Homo sapiens, HT-29, 48 h, read-out: IC50 mM of HT-29 Colorectal cancer cell line
[16] = Homo sapiens, HT-29, 48 h, read-out: IC50 of HT-29 Colorectal cancer cell line (mg/ml)
[17] = Homo sapiens, HepG2, 48 h, read-out: IC50 mM of HepG2 Liver cancer
[18] = Homo sapiens, HepG2, 48 h, read-out: IC50 of HepG2 Liver cancer (mg/ml)
[19] = Homo sapiens, A2780, 48 h, read-out: IC50 mM of A2780 Ovarian cancer
[20] = Homo sapiens, A2780, 48 h, read-out: IC50 of A2780 Ovarian cancer (mg/ml)
[21] = Homo sapiens, PANC-1, 48 h, read-out: IC50 mM of PANC-1 Pancreatic cancer
[22] = Homo sapiens, PANC-1, 48 h, read-out: IC50 of PANC-1 Pancreatic cancer (mg/ml)
[23] = read-out: IC50 mM of HCT-116 Colorectal cancer cell line
[24] = read-out: IC50 of HCT-116 Colorectal cancer cell line (mg/ml)
[25] = Homo sapiens, SNU-638, 48 h, read-out: IC50 mM of SNU-638 Stomach cancer
[26] = Homo sapiens, SNU-638, 48 h, read-out: IC50 of SNU-638 Stomach cancer (mg/ml)
[27] = read-out: IC50 value, HCT-116 cell
[28] = Homo sapiens, HCT-116, read-out: IC50 value, HCT-116 cell
[29] = Homo sapiens, DLD-1, read-out: cytotoxicity, DLD-1
[30] = Homo sapiens, SW480, read-out: cytotoxicity, SW-480

Compound: O=C(O)C(Cl)Cl [Dichloroacetic acid, dichloroacetic acid, reference compound]
- IC50 ([1]; DLD-1, 72 h, read-out: IC50 of Colorectal cancer cell line (mg/ml)): 1.21 mg/mL (≈ 9.38 mM)
- IC50 ([2]; read-out: IC50 of Breast cancer cell line (mg/ml)): 0.43 mg/mL (≈ 3.33 mM)
- IC50 ([3]; read-out: IC50 of Brain cancer cell line (mg/ml)): 3.71 mg/mL (≈ 28.8 mM)
- time-dependent PDH activity (PDH enzyme): peaked at 6 hours post-treatment and subsequently declined
- IC50 [4, 13]: > 5 mM
- IC50 [4, 14]: > 1.7 mg/mL
- IC50 [5, 15]: > 5 mM
- IC50 [5, 16]: > 1.7 mg/mL
- IC50 [6, 17]: > 5 mM
- IC50 [6, 18]: > 1.7 mg/mL
- IC50 [7, 19]: > 5 mM
- IC50 [7, 20]: > 1.7 mg/mL
- IC50 [8, 21]: > 5 mM
- IC50 [8, 22]: > 1.7 mg/mL
- IC50 [9, 23]: > 5 mM
- IC50 [9, 24]: > 1.7 mg/mL
- IC50 [10, 25]: > 5 mM
- IC50 [10, 26]: > 1.7 mg/mL

Compound: O=C1O[C@H]([C@@H](O)CO)C(O)=C1O [ascorbic acid, reference compound]
- ascorbic acid concentration in cancer cells [11]: lower level of increased ascorbic acid concentration
- IC50 ([1]; DLD-1, 72 h, MTT, read-out: IC50 of Colorectal cancer cell line): 0.09 mg/mL (≈ 0.511 mM)
- IC50 ([2]; read-out: IC50 of Breast cancer cell line): 0.06 mg/mL (≈ 0.341 mM)
- IC50 ([3]; U87MG, MTT, read-out: IC50 of Brain cancer cell line): 0.9 mg/mL (≈ 5.11 mM)
- IC50 [4, 13]: > 5 mM
- IC50 [4, 14]: > 1.7 mg/mL
- IC50 [5, 15]: 0.93 mM
- IC50 [5, 16]: 0.32 mg/mL
- IC50 [6, 17]: 4.2 mM
- IC50 [6, 18]: 1.44 mg/mL
- IC50 [7, 19]: 0.15 mM
- IC50 [7, 20]: 0.05 mg/mL
- IC50 [8, 21]: 0.37 mM
- IC50 [8, 22]: 0.13 mg/mL
- IC50 [9, 23]: 0.27 mM
- IC50 [9, 24]: 0.09 mg/mL
- IC50 [10, 25]: 2.48 mM
- IC50 [10, 26]: 0.85 mg/mL

Compound: CC(O)C(=O)[O-].O=C1O[C@H]([C@@H](O)CO)C([O-])=C1O.[Ca+2] [Example 2, calcium salts of ascorbic acid and lactate]
- ascorbic acid concentration in cancer cells [11]: increased
- concentration at which expression level of full length PARP-1 was decreased the most [12]: 0.34 mg/mL
- IC50 of Colorectal cancer cell line ([1]; DLD-1, 72 h, MTT): 70 µg/mL
- IC50 of Breast cancer cell line [2]: 50 µg/mL
- IC50 of Brain cancer cell line ([3]; U87MG, MTT): 600 µg/mL
- pIC50 (HCT-116 cell; [27]): 3.37
- pIC50 (HT-29 cell): 2.75
- pIC50 (DLD-1 cell): 3.47
- pIC50 (DLD-1): 2.07
- pIC50 (SW480): 2.59
- IC50 of A549 Lung cancer (mg/ml) ([4]; 48 h, MTT, value in brackets): (1.06) mg/ml
- IC50 ([4]; read-out: IC50 mM of A549 Lung cancer, 48 h, MTT): 3.1 mM
- IC50 of HT-29 Colorectal cancer cell line (mg/ml) ([5]; 48 h, MTT, value in brackets): (0.23) mg/ml
- IC50 ([5]; read-out: IC50 mM of HT-29 Colorectal cancer cell line, 48 h, MTT): 0.66 mM
- IC50 of HepG2 Liver cancer (mg/ml) ([6]; 48 h, MTT, value in brackets): (0.79) mg/ml
- IC50 ([6]; read-out: IC50 mM of HepG2 Liver cancer, 48 h, MTT): 2.3 mM
- IC50 of A2780 Ovarian cancer (mg/ml) ([7]; 48 h, MTT, value in brackets): (0.05) mg/ml
- IC50 ([7]; read-out: IC50 mM of A2780 Ovarian cancer, 48 h, MTT): 0.14 mM
- IC50 of PANC-1 Pancreatic cancer (mg/ml) ([8]; 48 h, MTT, value in brackets): (0.14) mg/ml
- IC50 ([8]; read-out: IC50 mM of PANC-1 Pancreatic cancer, 48 h, MTT): 0.4 mM
- IC50 of HCT-116 Colorectal cancer cell line (mg/ml) ([9]; 48 h, MTT, value in brackets): (0.11) mg/ml
- IC50 of SNU-638 Stomach cancer (mg/ml) ([10]; 48 h, MTT, value in brackets): (0.49) mg/ml
- IC50 ([10]; read-out: IC50 mM of SNU-638 Stomach cancer, 48 h, MTT): 1.44 mM

Compound: CCc1c2c(nc3ccc(O)cc13)-c1cc3c(c(=O)n1C2)COC(=O)[C@]3(O)CC [SN-38]
- pIC50 (HCT-116 cell; [27]): 6.60

Compound: O=c1[nH]cc(F)c(=O)[nH]1 [Fluorouracil (5-FU), Fluorouracil]
- pIC50 (HCT-116 cell; [28]): 5.22

Compound: calcium dichloroacetate [Ca(DCA)2]
- cell viability, DLD-1 (10 mM) (DLD-1): 62.53
- cell viability, SW480 (5 mM) (SW480): 105.98

Compound: CC(O)C(=O)[O-].O=C([O-])C(Cl)Cl.[Ca+2] (stereo not shown) [Example 3, calcium salts of dichloroacetic acid and lactate]
- concentration at which expression level of full length PARP-1 was decreased the most [12]: 0.3 mg/mL
- IC50 of Colorectal cancer cell line ([1]; DLD-1, 72 h, MTT): 860 µg/mL
- IC50 of Breast cancer cell line [2]: 50 µg/mL
- IC50 of Brain cancer cell line ([3]; U87MG, MTT): 800 µg/mL

Compound: CC(=O)O[C@H]1C(=O)[C@@]2(C)[C@H]([C@H](OC(=O)c3ccccc3)[C@]3(O)C[C@H](OC(=O)[C@H](O)[C@@H](NC(=O)c4ccccc4)c4ccccc4)C(C)=C1C3(C)C)[C@]1(OC(C)=O)CO[C@@H]1C[C@@H]2O [Paclitaxel (PTX), Paclitaxel]
- pIC50 (HCT-116 cell; [28]): 8.11

Compound: O=C1O[C@H]([C@@H](O)CO)C([O-])=C1O.[Na+] [Na-ASC, sodium ascorbate]
- viability at 10000 µM (DLD-1; Homo sapiens): 65.3%
- pIC50 (DLD-1; [29]): 2.02
- viability at 5000 µM (SW480; Homo sapiens): 40.8%
- pIC50 (SW480; [30]): 2.52

Compound: calcium ascorbate [Ca(ASC)2]
- ascorbic acid concentration in cancer cells [11]: lower level of increased ascorbic acid concentration
- cell viability, DLD-1 (10 mM) (DLD-1): 27.51
- cell viability, SW480 (5 mM) (SW480): 33.19

Compound: O=C([O-])C(Cl)Cl.[Na+] [Na-DCA, sodium dichloroacetate]
- viability at 10000 µM (DLD-1; Homo sapiens): 75.4%
- pIC50 (DLD-1; [29]): < 2.00
- viability at 5000 µM (SW480; Homo sapiens): 99.8%
- pIC50 (SW480; [30]): < 2.30
